The results in this text go back to patent US9498483B2, “2,3,5-trisubstituted thiophene compounds and uses thereof” (priority 2010, dated 2016).

For one test, the target named is T1, HCV polymerase (Hepatitis C virus genotype 1b, UniProt Q9WMX2).
T1 construct: (His)6 (C); made in house; host or cells: XL-1 cells (E. coli, by own knowledge)
Briefly: Polymerase assay of Biological Example 1 (IC50 values of Table 3). It is filed as biochemical. To be noted: IC50 values of Table 3, polymerase assay of Biological Example 1; read-out: NS5B-enzyme3.

Test [1] has as its system HCV replicon I389luc-ubi-neo/NS3-3′/ET in ET (Huh-lucubineo-ET) cells. Briefly: Replicon assay (Biological Example 2), luciferase readout. Format: cell-based. To be noted: Hepatitis C virus. In a few lines:
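EC50 values come from Hill fits of % inhibition of replicon-driven firefly luciferase, relative to no-compound wells. Compounds were serially diluted (10 points, 3-fold, 0.1 nM–50 μM final, 0.5% DMSO) onto ET replicon cells and read after 48 h.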
On the technique in general: In antiviral work, replicon cells carry a viral genome segment that copies itself.

[2] abbreviates: ET cells, luciferase activity 48 hours after compound.

On to `CCN(CC)c1ccc(S(=O)(=O)N2CC(=O)N(c3cc(-c4ccccc4)sc3C(=O)O)[C@H](C3CCCCC3)C2)cn1` [Compound 177, 3-[(R)-2-Cyclohexyl-4-(6-diethylamino-pyridine-3-sulfonyl)-6-oxo-piperazin-1-yl]-5-phenyl-thiophene-2-carboxylic acid], for which the IC50 was 2 nM at HCV polymerase and no more than 100 nM in test [1] (setting [2]).

In the case of `O=C(O)c1sc(-c2ccccc2)cc1N1C(=O)CN(S(=O)(=O)c2ccc(-c3ccccc3)nc2)C[C@H]1C1CCCCC1` [Compound 178, 3-[(R)-2-Cyclohexyl-6-oxo-4-(6-phenyl-pyridine-3-sulfonyl)-piperazin-1-yl]-5-phenyl-thiophene-2-carboxylic acid], the IC50 was 1 nM at HCV polymerase; 100 to 5000 nM in test [1] (between 100 nM and 5.0 uM).

For `O=C(O)c1sc(-c2ccccc2)cc1N1C(=O)CN(S(=O)(=O)c2ccc(N3CCCCC3)nc2)C[C@H]1C1CCCCC1` [Compound 179, 3-[(R)-2-Cyclohexyl-6-oxo-4-(3,4,5,6-tetrahydro-2H-[1,2′]bipyridinyl-5′-sulfonyl)-piperazin-1-yl]-5-phenyl-thiophene-2-carboxylic acid], the results for the IC50 (on HCV polymerase; in test [1] (setting [2])) were 1 nM and no more than 100 nM, respectively.

On to `Cc1ccc(-c2cc(N3C(=O)CN(S(=O)(=O)c4ccc(N5CCC[C@H]5C)nc4)C[C@H]3C3CCCCC3)c(C(=O)O)s2)cc1` [Compound 180, 3-{(R)-2-Cyclohexyl-4-[6-((R)-2-methyl-pyrrolidin-1-yl)-pyridine-3-sulfonyl]-6-oxo-piperazin-1-yl}-5-p-tolyl-thiophene-2-carboxylic acid], for which the IC50 was less than 0.2 nM on HCV polymerase and no more than 100 nM in test [1] (setting [2]).

`CC(C)(C)C#Cc1cc(N2C(=O)OC[C@H]2C2CCCCC2)c(C(=O)O)s1` [Compound 181, 3-((R)-4-Cyclohexyl-2-oxo-oxazolidin-3-yl)-5-(3,3-dimethyl-but-1-ynyl)-thiophene-2-carboxylic acid]: the IC50 on HCV polymerase is 3 nM; in test [1] (between 100 nM and 5.0 uM), 100 to 5000 nM.

For the compound `O=C(O)c1sc(-c2ccccc2)cc1N1C(=O)CN(Cc2ccc(N3CCCC3)nc2)C[C@H]1C1CCCCC1` [Compound 182, 3-[(R)-2-Cyclohexyl-6-oxo-4-(6-pyrrolidin-1-yl-pyridin-3-ylmethyl)-piperazin-1-yl]-5-phenyl-thiophene-2-carboxylic acid], the figures for the IC50 (on HCV polymerase; in test [1] (setting [2])) were 2 nM and no more than 100 nM, respectively.

Turning to `C[C@@H]1CCCCN1c1ccc(S(=O)(=O)N2CC(=O)N(c3cc(-c4ccccc4)sc3C(=O)O)[C@H](C3CCCCC3)C2)cn1` [Compound 183, 3-[(R)-2-Cyclohexyl-4-((R)-2-methyl-3,4,5,6-tetrahydro-2H-[1,2′]bipyridinyl-5′-sulfonyl)-6-oxo-piperazin-1-yl]-5-phenyl-thiophene-2-carboxylic acid], the IC50 is 1.8 nM at HCV polymerase and no more than 100 nM in test [1] (setting [2]).

Regarding `O=C(O)c1sc(-c2ccccc2)cc1N1C(=O)CN(S(=O)(=O)c2ccc(N3CCOCC3)nc2)C[C@H]1C1CCCCC1` [Compound 184, 3-[(R)-2-Cyclohexyl-4-(6-morpholin-4-yl-pyridine-3-sulfonyl)-6-oxo-piperazin-1-yl]-5-phenyl-thiophene-2-carboxylic acid], the IC50 at HCV polymerase is 1.7 nM; in test [1] (setting [2]), no more than 100 nM.

Turning to `C[C@@H]1CCCN1c1ccc(S(=O)(=O)N2CC(=O)N(c3cc(-c4ccc(F)cc4)sc3C(=O)O)[C@H](C3CCCCC3)C2)cn1` [Compound 185, 3-{(R)-2-Cyclohexyl-4-[6-((R)-2-methyl-pyrrolidin-1-yl)-pyridine-3-sulfonyl]-6-oxo-piperazin-1-yl}-5-(4-fluoro-phenyl)-thiophene-2-carboxylic acid], the IC50 on HCV polymerase is 1 nM; in test [1] (setting [2]), no more than 100 nM.

Turning to `O=C(O)c1sc(-c2ccc(F)cc2)cc1N1C(=O)CN(S(=O)(=O)c2ccc(N3CCCOCC3)nc2)C[C@H]1C1CCCCC1` [Compound 186, 3-[(R)-2-Cyclohexyl-4-(6-[1,4]oxazepan-4-yl-pyridine-3-sulfonyl)-6-oxo-piperazin-1-yl]-5-(4-fluoro-phenyl)-thiophene-2-carboxylic acid], the IC50 at HCV polymerase is 1 nM; in test [1] (setting [2]), no more than 100 nM.

As for `Cc1ccc(-c2cc(N3C(=O)CN(S(=O)(=O)c4ccc(N5CCOCC5)nc4)C[C@H]3C3CCCCC3)c(C(=O)O)s2)cc1` [Compound 187, 3-[(R)-2-Cyclohexyl-4-(6-morpholin-4-yl-pyridine-3-sulfonyl)-6-oxo-piperazin-1-yl]-5-p-tolyl-thiophene-2-carboxylic acid], the IC50 on HCV polymerase was 1 nM; in test [1] (setting [2]) it was no more than 100 nM.

For `Cc1ccc(-c2cc(N3C(=O)CN(S(=O)(=O)c4ccc(N5CCCOCC5)nc4)C[C@H]3C3CCCCC3)c(C(=O)O)s2)cc1` [Compound 188, 3-[(R)-2-Cyclohexyl-4-(6-[1,4]oxazepan-4-yl-pyridine-3-sulfonyl)-6-oxo-piperazin-1-yl]-5-p-tolyl-thiophene-2-carboxylic acid], the IC50 on HCV polymerase is 1 nM; in test [1] (setting [2]), no more than 100 nM.

Consider `O=C(O)c1sc(-c2ccc(F)cc2)cc1N1C(=O)CN(S(=O)(=O)c2ccc(N3CCOCC3)nc2)C[C@H]1C1CCCCC1` [Compound 189, 3-[(R)-2-Cyclohexyl-4-(6-morpholin-4-yl-pyridine-3-sulfonyl)-6-oxo-piperazin-1-yl]-5-(4-fluoro-phenyl)-thiophene-2-carboxylic acid], for which the IC50 at HCV polymerase was 1 nM; in test [1] (setting [2]) it was no more than 100 nM.

For `COc1ccc(S(=O)(=O)N2CC(=O)N(c3cc(C#CC(C)(C)C)sc3C(=O)O)[C@H](C3CCCCC3)C2)cc1` [Compound 190, 3-[(R)-2-Cyclohexyl-4-(4-methoxy-benzenesulfonyl)-6-oxo-piperazin-1-yl]-5-(3,3-dimethyl-but-1-ynyl)-thiophene-2-carboxylic acid], the IC50 on HCV polymerase was 1 nM; in test [1] (setting [2]), no more than 100 nM.

In the case of `COc1ccc(S(=O)(=O)N2CC(=O)N(c3cc(C#CC(C)(C)C)sc3C(=O)O)[C@H](C3CCCCC3)C2)cn1` [Compound 191, 3-[(R)-2-Cyclohexyl-4-(6-methoxy-pyridine-3-sulfonyl)-6-oxo-piperazin-1-yl]-5-(3,3-dimethyl-but-1-ynyl)-thiophene-2-carboxylic acid], the IC50 is 1 nM at HCV polymerase and no more than 100 nM in test [1] (setting [2]).

For the compound `CC(C)(C)C#Cc1cc(N2C(=O)CN(S(=O)(=O)c3cccnc3)C[C@H]2C2CCCCC2)c(C(=O)O)s1` [Compound 192, 3-[(R)-2-Cyclohexyl-6-oxo-4-(pyridine-3-sulfonyl)-piperazin-1-yl]-5-(3,3-dimethyl-but-1-ynyl)-thiophene-2-carboxylic acid], the IC50 is 3 nM on HCV polymerase and no more than 100 nM in test [1] (setting [2]).

For the compound `Cn1ccc(S(=O)(=O)N2CC(=O)N(c3cc(C#CC(C)(C)C)sc3C(=O)O)[C@H](C3CCCCC3)C2)n1` [Compound 193, 3-[(R)-2-Cyclohexyl-4-(1-methyl-1H-pyrazole-3-sulfonyl)-6-oxo-piperazin-1-yl]-5-(3,3-dimethyl-but-1-ynyl)-thiophene-2-carboxylic acid], the IC50 on HCV polymerase is 1 nM; in test [1] (setting [2]), no more than 100 nM.

With `O=C(O)c1sc(-c2ccccc2)cc1N1C(=O)CN(S(=O)(=O)c2ccc(NC3CCOCC3)nc2)C[C@H]1C1CCCCC1` [Compound 194, 3-{(R)-2-Cyclohexyl-6-oxo-4-[6-(tetrahydro-pyran-4-ylamino)-pyridine-3-sulfonyl]-piperazin-1-yl}-5-phenyl-thiophene-2-carboxylic acid], the IC50 on HCV polymerase was 2 nM; in test [1] (setting [2]) it was no more than 100 nM.

With `C[C@@H]1COCCN1c1ccc(S(=O)(=O)N2CC(=O)N(c3cc(-c4ccc(F)cc4)sc3C(=O)O)[C@H](C3CCCCC3)C2)cn1` [Compound 195, 3-{(R)-2-Cyclohexyl-4-[6-((R)-3-methyl-morpholin-4-yl)-pyridine-3-sulfonyl]-6-oxo-piperazin-1-yl}-5-(4-fluoro-phenyl)-thiophene-2-carboxylic acid], the IC50 was 3 nM at HCV polymerase and no more than 100 nM in test [1] (setting [2]).

Take `O=C(O)c1sc(-c2ccc(F)cc2)cc1N1C(=O)CN(S(=O)(=O)c2ccc(N3CC4CCC(C3)O4)nc2)C[C@H]1C1CCCCC1` [Compound 196, 3-{(R)-2-Cyclohexyl-4-[6-(8-oxa-3-aza-bicyclo[3.2.1]oct-3-yl)-pyridine-3-sulfonyl]-6-oxo-piperazin-1-yl}-5-(4-fluoro-phenyl)-thiophene-2-carboxylic acid]: the IC50 at HCV polymerase was 1 nM; in test [1] (setting [2]) it was no more than 100 nM.

As to `Cc1ccc(-c2cc(N3C(=O)CN(S(=O)(=O)c4ccc(N5CCOC[C@H]5C)nc4)C[C@H]3C3CCCCC3)c(C(=O)O)s2)cc1` [Compound 197, 3-{(R)-2-Cyclohexyl-4-[6-((R)-3-methyl-morpholin-4-yl)-pyridine-3-sulfonyl]-6-oxo-piperazin-1-yl}-5-p-tolyl-thiophene-2-carboxylic acid], the IC50 is 4.6 nM on HCV polymerase and no more than 100 nM in test [1] (setting [2]).

On to `Cc1ccc(-c2cc(N3C(=O)CN(S(=O)(=O)c4ccc(N5CC6CCC(C5)O6)nc4)C[C@H]3C3CCCCC3)c(C(=O)O)s2)cc1` [Compound 198, 3-{(R)-2-Cyclohexyl-4-[6-(8-oxa-3-aza-bicyclo[3.2.1]oct-3-yl)-pyridine-3-sulfonyl]-6-oxo-piperazin-1-yl}-5-p-tolyl-thiophene-2-carboxylic acid], for which the values for the IC50 (at HCV polymerase; in test [1] (setting [2])) were 1 nM and no more than 100 nM, respectively.

For `O=C(O)c1sc(-c2ccc(Cl)cc2)cc1N1C(=O)CN(S(=O)(=O)c2ccc(N3CCOCC3)nc2)C[C@H]1C1CCCCC1` [Compound 199, 5-(4-Chloro-phenyl)-3-[(R)-2-cyclohexyl-4-(6-morpholin-4-yl-pyridine-3-sulfonyl)-6-oxo-piperazin-1-yl]-thiophene-2-carboxylic acid], the IC50 at HCV polymerase was 2 nM; in test [1] (setting [2]), no more than 100 nM.
